Holding throughout (assay type): cell-based, mouse
Series [1] has as its system Neuro2a transfected with aryl hydrocarbon receptor-expressing nucleic acid pcDNA4-rAhR. Briefly: Neurite outgrowth (cell morphology) of cell strains transfected with pcDNA4-rAhR. The note with it: 10 nM, DF1:1 medium, 1 to 3 weeks; two selected AhR-transfected Neuro2a strains (FIG. 2). The protocol:
(3) Cells in which neurites outgrow this observed by adding ligand of the aryl hydrocarbon receptor, are selected from the cell strains obtained in (c). Cells into which the receptor-expressing nucleic acid is transfected are cultured in a conventional culture medium such as DF1:1 medium containing 10% fetal bovine serum with or without adding ligand of the aryl hydrocarbon receptor for 1 to 3 weeks. And morphological changes are compared between the two types of the cells described above. The number of the neurite from the cell, the length of the neurite, and the number of the cells in which the neurite is outgrown are compared when the morphology changes of the cell strain are used as indications. It is more preferable that comparison of increase of a proportion of a number of cells with neurite having a twofold length of a diameter of the each cells, to the total cells which are in contacted with a ligand of aryl hydrocarbon receptor. The cells in which the neurite is outgrown by adding ligand of the aryl hydrocarbon receptor are selected, by comparing the cells in which the receptor-expressing nucleic acid is transfected by adding the ligand of the aryl hydrocarbon receptor with the cells in which the receptor-expressing nucleic acid is transfected without adding the ligand of the aryl hydrocarbon receptor. […]

In series [2] the test system is TH gene, Cdc42 gene and tau gene. Briefly: Marker gene expression (TH, Cdc42, tau) by reverse transcription PCR in selected cell strains. The conditions noted are these: selected two cell strains cultured with vs without 2,3,7,8-TCDD (FIG. 3). Here is the method: Total RNAs were extracted with an RNeasy kit after culturing the selected two cell strains in DF1:1 medium supplemented with 2,3,7,8-TCDD, and cDNA was synthesized by a reverse transcription reaction. Subsequently, using cDNA synthesized above as a template and ExTaq (manufactured by Takara Bio Inc.), expression of the TH gene was confirmed by 25 cycles of PCR comprising one cycle with denaturation of 94° C./30 second, annealing of 60° C./30 seconds and extension of 72° C./30 seconds. Also, expression of the Cdc42 gene and tau gene was confirmed by 25 cycles of PCR comprising one cycle with denaturation of 94° C./30 second, annealing of 58° C./30 seconds and extension of 72° C./30 seconds. A forward primer 5′-CCACggTgTACTggTTCACT (SEQ ID NO: 7) and a reverse primer 5′-ggCATAgTTCCTgAgCTTgT (SEQ ID NO: 8) were used as primers for the TH gene; a forward primer 5′-gATACTgCAgggCAAgAgg (SEQ ID NO: 9) and a reverse primer 5′-CAggCACCCACTTTTCTTTC (SEQ ID NO: 10) were used as primers for the Cdc42 gene; and a forward primer 5′-TCCggAgAACgAAgCggCTACAgC (SEQ ID NO: 11) and a reverse primer 5′-TgCTgAggTgCCgTggAgATgTgT (SEQ ID NO: 12) were used as primers for the tau gene. As a result, the amounts of expression of the TH gene, Cdc42 gene and tau gene were increased in any of the two selected cell strains cultured with 2,3,7,8-TCDD as compared with the cell strains cultured without 2,3,7,8-TCDD (FIG. 3).

For series [3], the system named is tau protein and TH protein. In words: Marker protein expression (tau, TH) by western blotting in selected cell strains. The conditions noted are these: 10 nM, three weeks, with vs without; selected two cell strains (FIG. 4). Here is the method: After the selected two cell strains were cultured in DF1:1 medium supplemented with 10 nM of 2,3,7,8-TCDD for three weeks, the amounts of expression of the tau protein and TH protein were confirmed by extracting the proteins and by conducting western blotting with a tau protein antibody and TH protein antibody. The amounts of expression of the tau protein and TH protein were increased in any of the selected two cell strains as compared with neurotoxicity responsive cells cultured without adding 2,3,7,8-TCDD (FIG. 4).
(A western blot detects proteins with antibodies after separation by electrophoresis.)

In another series the test system is Neuro2a. In words: CYP1A1 gene expression by reverse transcription PCR in parent Neuro2a. The conditions noted are these: 30 nM, 24 hours; parent Neuro2a (no AhR gene detected). Here is the method:
After cultivating these cell strains in DF1:1 suppremented with or without 30 nM of 2,3,7,8-TCDD for 24 hours, total RNAs were extracted from the cells. An RNeasy kit was used for extraction of total RNA. The extracted RNA was reverse-transcripted using an oligo(dT) primer. Subsequently, expression of CYP1A1 gene was confirmed by 25 cycles of PCR comprising 1 cycle with denaturation of 94° C./30 second, annealing of 55° C./30 seconds and extension of 72° C./30 seconds. CYP1A1 gene is one of genes, of which expression thereof is induced by binding of the aryl hydrocarbon receptor activated by binding of a ligand to XRE (xenobiotic responsive element) on DNAs. A forward primer 5′-CCCACAgCACCACAAgAgATA (SEQ ID NO: 5) and a reverse primer 5′-AAgTAggAggCACAATgTC (SEQ ID NO: 6) were used as primers for PCR. As a result, expression of CYP1A1 gene was increased by adding 2,3,7,8-TCDD in both of two selected cell strains. While the same experiment was performed with respect to Neuro2a, no increase of the amount of expression of CYP1A1 gene was observed.

For series [4], the system named is aryl hydrocarbon receptor. Briefly: CYP1A1 gene expression by reverse transcription PCR in selected cell strains. The conditions noted are these: 30 nM, 24 hours, with vs without; both selected cell strains. An excerpt:
(2) Cells functionally expressed the aryl hydrocarbon receptor protein are selected from the cells obtained in (c). A gene known to be able to induce expression of the gene through activation of the aryl hydrocarbon receptor is used as a marker as an indication of the selection. Examples of the gene include genes for CYP1A1, UGT glycosyltransferase 1 family, polypeptide A6 (UGT1A6) or glutathione-S-transferase (GST). The selection procedure includes, for example, culturing the cells to be selected in a conventional culture medium such as DF1:1 medium containing 10% of fetal bovine serum for 1 to 5 days; culturing the cells in a conventional culture medium such as DF1:1 medium containing 10% of fetal bovine serum for 1 week by adding a ligand of aryl hydrocarbon receptor; and extracting RNAs from the cells to detect the expression of the marker gene by a known RNA detection method such as northern hybridization and reverse transcription PCR. Alternatively, the protein translated from the marker gene is detected by a known detection method such as western blotting. The cells confirmed to induce the expression of the marker gene by this confirmation are selected.
After cultivating these cell strains in DF1:1 suppremented with or without 30 nM of 2,3,7,8-TCDD for 24 hours, total RNAs were extracted from the cells. An RNeasy kit was used for extraction of total RNA. […]

With `Clc1cc2c(cc1Cl)Oc1cc(Cl)c(Cl)cc1O2` [2,3,7,8-TCDD, 2,3,7,8-tetrachlorodibenzo-p-dioxin], the “neurite outgrowth (morphology of the cell)” value in series [1] is on record as “particularly high proportion of neurite outgrowth”. In addition, in series [2], the “amount of expression of the Cdc42 gene” value was “increased”, the “amount of expression of the TH gene” value is reported as “increased” and the “amount of expression of the tau gene” value is reported as “increased”. For the same compound, in series [3], the “amount of expression of the TH protein” value is given as “increased” and the “amount of expression of the tau protein” value is listed as “increased”. For the same compound, in the series on Neuro2a, the “amount of expression of CYP1A1 gene” value is reported as “no increase”. Further, the “expression of CYP1A1 gene” value in series [4] was “increased”.

The record behind these values is patent US7662626B2, “Cells and methods for estimation of effects on neurological dysfunction” (Kabushiki Kaisha Toshiba, priority 2005, dated 2010).
